From the NIST ThermoML archive (doi:10.1021/je301001g)

Conditions: for surface tension liquid-gas: Maximal bubble pressure; for mass density / electrical conductivity / viscosity: 101.33 kPa, Liquid; for mass density: Buoyancy - hydrostatic balance; for electrical conductivity: MP522 conductivity instrument; for viscosity: Capillary tube (Ostwald / Ubbelohde) method

CCCCNC(=O)C[n+]1ccn(CC)c1.O=S(=O)([N-]S(=O)(=O)C(F)(F)F)C(F)(F)F
Conditions	electrical conductivity [S/m]	mass density [kg/m3]	surface tension liquid-gas [mN/m]	viscosity [mPa·s]
283.15 K	0.00606	1431	32.7	–
288.15 K	0.00985	1427	32.4	–
293.15 K	0.0153	1422.7	32.2	–
298.15 K	0.0233	1418	31.8	777.5
303.15 K	0.0332	1413.5	31.6	517.3
308.15 K	0.0467	1409	31	359
313.15 K	0.0639	1404.4	30.8	255.2
318.15 K	0.0854	1399.7	30.5	187.9
323.15 K	0.111	1395.4	30.3	138.9
328.15 K	0.141	1391	29.8	106
333.15 K	0.177	1386.7	29.4	82.1
338.15 K	0.219	1382.3	29	64.4
343.15 K	–	–	–	53.3
348.15 K	–	–	–	43.5
353.15 K	–	–	–	35.8
358.15 K	–	–	–	30
363.15 K	–	–	–	25.3
